Test results taken from paper PMC3663763, “The novel BH3 α-helix mimetic JY-1-106 induces apoptosis in a subset of cancer cells (lung cancer, colon cancer and mesothelioma) by disrupting Bcl-xL and Mcl-1 protein–protein interactions with Bak” (Molecular Cancer, 2013).

Experiments:
[1] = target: T1, Mcl-1 (Homo sapiens, UniProt Q07820); test: fluorescence polarization competition with FITC-Bak-BH3 peptide, […] Mcl-1 (IC50 […]); supported by co-IP in REN cells; assay type: binding
T1 construct: gene MCL1

[2] = target: T2, Bcl-xL (Homo sapiens, UniProt Q07817); test: co-immunoprecipitation: displacement of Bak from endogenous Bcl-xL in REN cells at […]; assay type: cell-based
T2 construct: gene BCL2L1; endogenous Bcl-xL
T2 sequence (Q07817 whole entry): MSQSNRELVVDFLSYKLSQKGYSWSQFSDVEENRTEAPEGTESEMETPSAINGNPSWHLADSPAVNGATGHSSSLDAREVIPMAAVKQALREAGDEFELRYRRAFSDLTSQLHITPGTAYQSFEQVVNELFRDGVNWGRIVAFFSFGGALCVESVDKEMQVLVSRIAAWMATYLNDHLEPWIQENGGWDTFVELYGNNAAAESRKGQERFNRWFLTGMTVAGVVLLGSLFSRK
T2 sequence (Q16611 2-211 partner): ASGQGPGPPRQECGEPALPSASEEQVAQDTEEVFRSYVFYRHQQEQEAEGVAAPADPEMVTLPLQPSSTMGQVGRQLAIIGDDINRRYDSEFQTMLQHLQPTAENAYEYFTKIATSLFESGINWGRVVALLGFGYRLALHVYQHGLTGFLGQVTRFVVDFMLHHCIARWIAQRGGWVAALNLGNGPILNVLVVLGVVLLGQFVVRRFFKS

T1 sequence (Q07820 whole entry): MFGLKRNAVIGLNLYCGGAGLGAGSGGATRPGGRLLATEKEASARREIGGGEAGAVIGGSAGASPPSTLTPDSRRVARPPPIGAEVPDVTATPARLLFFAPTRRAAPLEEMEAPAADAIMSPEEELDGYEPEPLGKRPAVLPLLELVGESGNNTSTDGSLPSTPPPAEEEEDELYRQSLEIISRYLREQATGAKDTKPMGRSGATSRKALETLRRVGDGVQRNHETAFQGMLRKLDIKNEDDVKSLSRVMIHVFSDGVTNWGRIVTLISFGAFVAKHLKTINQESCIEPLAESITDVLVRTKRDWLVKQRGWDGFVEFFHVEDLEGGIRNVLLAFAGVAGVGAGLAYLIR

Ki [1]: 1.79 ± 0.15 µM
Compound: CC(C)Oc1cc(C(=O)Nc2ccc(C(=O)Nc3ccc(C(=O)O)cc3OC(C)C)nc2OC(C)C)ccc1N [JY-1-106]
co-immunoprecipitation: displacement of Bak from endogenous Bcl-xL in REN cells [2]: JY-1-106 as well as ABT-737 can effectively displace Bak from its inhibitory binding with Bcl-xL
